{"source": "ChEMBL document CHEMBL1212786", "about": "(Antimicrob Agents Chemother, 2010)", "key": {"CYP3A4 [1]": {"biological_target": "T1, CYP3A4 (Homo sapiens, UniProt P08684)", "T1 sequence (P08684 whole entry)": "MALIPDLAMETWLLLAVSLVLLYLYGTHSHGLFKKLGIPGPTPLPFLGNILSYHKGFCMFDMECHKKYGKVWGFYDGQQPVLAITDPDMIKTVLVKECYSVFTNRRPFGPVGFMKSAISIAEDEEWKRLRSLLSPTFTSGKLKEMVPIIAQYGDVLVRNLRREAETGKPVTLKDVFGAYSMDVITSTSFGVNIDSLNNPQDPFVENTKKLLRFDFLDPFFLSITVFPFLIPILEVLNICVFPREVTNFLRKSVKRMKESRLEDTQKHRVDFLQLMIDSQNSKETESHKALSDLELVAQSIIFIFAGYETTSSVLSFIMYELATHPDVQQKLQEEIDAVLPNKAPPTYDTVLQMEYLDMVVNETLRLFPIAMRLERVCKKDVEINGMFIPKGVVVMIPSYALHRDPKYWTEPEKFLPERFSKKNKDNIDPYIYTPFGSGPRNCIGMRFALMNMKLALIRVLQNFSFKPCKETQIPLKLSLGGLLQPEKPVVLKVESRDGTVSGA", "test": "Induction of CYP3A4 in human hepatocytes at 2 uM after 72 hrs relative to control", "format": "ADME, cell-based, Hepatocyte", "details": "read-out: FC"}, "CYP2B6 [2]": {"biological_target": "T2, CYP2B6 (Homo sapiens, UniProt P20813)", "T2 sequence (P20813 whole entry)": "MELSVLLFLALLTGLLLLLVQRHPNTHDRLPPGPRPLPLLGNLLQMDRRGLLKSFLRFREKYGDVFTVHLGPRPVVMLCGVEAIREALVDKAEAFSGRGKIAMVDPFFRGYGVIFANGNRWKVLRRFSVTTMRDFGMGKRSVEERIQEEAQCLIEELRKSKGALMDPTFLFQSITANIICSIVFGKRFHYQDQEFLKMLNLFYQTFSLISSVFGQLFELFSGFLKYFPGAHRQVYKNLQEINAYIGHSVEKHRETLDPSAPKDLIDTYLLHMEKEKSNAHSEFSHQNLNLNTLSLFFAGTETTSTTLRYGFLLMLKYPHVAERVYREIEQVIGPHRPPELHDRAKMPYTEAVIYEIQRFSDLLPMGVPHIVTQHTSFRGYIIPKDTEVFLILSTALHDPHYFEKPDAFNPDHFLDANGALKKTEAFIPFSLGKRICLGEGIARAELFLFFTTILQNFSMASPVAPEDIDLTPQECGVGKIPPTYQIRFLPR", "test": "Induction of CYP2B6 in human hepatocytes at 2 uM after 72 hr relative to control", "format": "ADME, cell-based, Hepatocyte", "details": "read-out: FC"}, "CYP1A2 [3]": {"biological_target": "T3, CYP1A2 (Homo sapiens, UniProt P05177)", "T3 sequence (P05177 whole entry)": "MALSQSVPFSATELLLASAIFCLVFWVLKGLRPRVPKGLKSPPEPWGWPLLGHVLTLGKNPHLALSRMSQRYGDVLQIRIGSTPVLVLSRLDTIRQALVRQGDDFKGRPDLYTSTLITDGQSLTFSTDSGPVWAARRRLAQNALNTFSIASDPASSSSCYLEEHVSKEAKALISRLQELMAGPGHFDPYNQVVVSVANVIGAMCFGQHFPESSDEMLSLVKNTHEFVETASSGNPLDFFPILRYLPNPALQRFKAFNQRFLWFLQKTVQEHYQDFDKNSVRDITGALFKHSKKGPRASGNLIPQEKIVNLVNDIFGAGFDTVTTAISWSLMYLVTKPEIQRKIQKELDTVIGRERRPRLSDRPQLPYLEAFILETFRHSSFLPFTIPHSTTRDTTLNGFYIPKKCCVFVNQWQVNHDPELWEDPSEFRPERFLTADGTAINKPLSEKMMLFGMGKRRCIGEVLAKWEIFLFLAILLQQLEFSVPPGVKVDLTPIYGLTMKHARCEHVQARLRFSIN", "test": "Induction of CYP1A2 in human hepatocytes at 2 uM after 72 hrs relative to control", "format": "ADME, cell-based, Hepatocyte", "details": "read-out: FC"}, "PBMC": {"system": "PBMC", "test": "Antiinflammatory activity in human PBMC assessed as inhibition of anti-CD3/CD28 antibody-induced IL-2 production treated for 1 hr before anti-CD3/CD28 antibody challenge measured after 6 hrs by immunosuppression assay", "format": "functional, cell-based"}, "Hepatitis C virus": {"system": "Hepatitis C virus", "test": "Antiviral activity against Hepatitis C virus infected in human Huh7ET cells assessed as inhibition of viral replication after 72 hrs by luciferase reporter gene assay", "format": "functional, organism-based, Hepacivirus hominis", "details": "Huh-7, 72 h"}, "CYP1A2 [4]": {"biological_target": "T3, CYP1A2", "test": "Induction of CYP1A2 in human hepatocytes at 1000 uM after 72 hrs relative to control", "format": "ADME, cell-based, Hepatocyte", "details": "read-out: FC"}, "CYP3A4 [5]": {"biological_target": "T1, CYP3A4", "test": "Induction of CYP3A4 in human hepatocytes at 1000 uM after 72 hrs relative to control", "format": "ADME, cell-based, Hepatocyte", "details": "read-out: FC"}, "CYP2B6 [6]": {"biological_target": "T2, CYP2B6", "test": "Induction of CYP2B6 in human hepatocytes at 1000 uM after 72 hrs relative to control", "format": "ADME, cell-based, Hepatocyte", "details": "read-out: FC"}}, "data": [{"smiles": "Cc1ccc2cc3c(ccc4ccccc43)c3c2c1CC3", "note": "[3-METHYLCHOLANTHRENE]", "values": [{"measurement": "fold induction at 72 h, 2 µM", "setting": "CYP3A4 [1]", "result": 0.97}, {"measurement": "fold induction at 72 h, 2 µM", "setting": "CYP2B6 [2]", "result": 1.33}, {"measurement": "fold induction at 72 h, 2 µM", "setting": "CYP1A2 [3]", "result": 21.2}]}, {"smiles": "C/C=C/C[C@@H](C)[C@@H](O)[C@H]1C(=O)N[C@@H](CC)C(=O)N(C)CC(=O)N(C)[C@@H](CC(C)C)C(=O)N[C@@H](C(C)C)C(=O)N(C)[C@@H](CC(C)C)C(=O)N[C@@H](C)C(=O)N[C@H](C)C(=O)N(C)[C@@H](CC(C)C)C(=O)N(C)[C@@H](CC(C)C)C(=O)N(C)[C@@H](C(C)C)C(=O)N1C", "note": "[CYCLOSPORINE]", "values": [{"measurement": "EC50", "setting": "PBMC", "result": 0.0031, "unit": "µM"}, {"measurement": "CC50", "setting": "Hepatitis C virus", "result": 5.62, "unit": "µM"}]}, {"smiles": "CCC1(c2ccccc2)C(=O)NC(=O)NC1=O", "note": "[PHENOBARBITAL]", "values": [{"measurement": "fold induction at 72 h, 1000 µM", "setting": "CYP1A2 [4]", "result": 1.67}, {"measurement": "fold induction at 72 h, 1000 µM", "setting": "CYP3A4 [5]", "result": 6.73}, {"measurement": "fold induction at 72 h, 1000 µM", "setting": "CYP2B6 [6]", "result": 9.1}]}]}
